Data: patent publication US20220251084A1, “PROGRANULIN MODULATORS AND METHODS OF USING THE SAME” (ARKUDA THERAPEUTICS, priority 2019, published 2022)

Test system: progranulin (PGRN) secretion, BV-2 cells
Experiment: PGRN assay: progranulin induction cellular assay (ELISA of secreted mouse PGRN)
Format: cell-based
Settings: not given
Procedure: Cellular Assays: To measure the efficacy of compounds, a progranulin induction cellular assay in mouse primary microglia (pMG), primary cortical neurons, and BV-2 cell lines is used. BV-2 cells are split the day before plating into a 96 well plate format at approximately 80%. Cells should be plated the day before and allowed for 1 hour attachment period and for 16 hour incubation. […] Standard ELISA kits to measure PGRN are available from vendors such as Adipogen, R&D, and Biovendor.

| Structure (SMILES) | EC50 [µM] |
| --- | --- |
| CN1CCC([C@H]2c3ccccc3CCN2C(=O)O[C@@H]2CN3CCC2CC3)CC1=O (stereo partly drawn) [Compound 2024, (S)-quinuclidin-3-yl 1-(1-methyl-2-oxopiperidin-4-yl)-3,4-dihydroisoquinoline-2(1H)-carboxylate] | > 10 |
| N#Cc1ccc2c(c1)CCN(C(=O)O[C@@H]1CN3CCC1CC3)[C@H]2c1ccc(F)cc1 [Compound 2033] | > 10 |
| N#Cc1ccc2c(c1)CCN(C(=O)O[C@@H]1CN3CCC1CC3)[C@@H]2c1ccc(F)cc1 [Compound 2034] | 6.07 |
| N#Cc1ccc2c(c1)[C@H](c1ccc(F)cc1)N(C(=O)O[C@@H]1CN3CCC1CC3)CC2 [Compound 2035] | > 10 |
| N#Cc1ccc2c(c1)[C@@H](c1ccc(F)cc1)N(C(=O)O[C@@H]1CN3CCC1CC3)CC2 [Compound 2036] | > 10 |
| O=C(O[C@@H]1CN2CCC1CC2)N1CCc2cccnc2[C@@H]1c1ccc(F)cc1 [Compound 2054, (S)-quinuclidin-3-yl 8-(4-fluorophenyl)-5,6-dihydro-1,7-naphthyridine-7(8H)-carboxylate] | 4.74 |
| O=C(O[C@@H]1CN2CCC1CC2)N1CCc2cccnc2[C@H]1c1ccc(F)cc1 [Compound 2055, (S)-quinuclidin-3-yl 8-(4-fluorophenyl)-5,6-dihydro-1,7-naphthyridine-7(8H)-carboxylate] | 3.3 |

Same assay, conditions: Mus musculus, BV-2

| Structure (SMILES) | EC50 [µM] |
| --- | --- |
| O=C(OCC12CCN(CC1)CC2)N1CCc2ccccc2[C@@H]1c1ccc(F)cc1 [Compound 2001] | 0.17 |
| O=C(O[C@@H]1CN2CCC1CC2)N1CCc2ccccc2C1c1ccc2[nH]c(=O)sc2c1 (stereo partly drawn) [Compound 2011] | > 10 |
| O=C(O[C@@H]1CN2CCC1CC2)N1CCc2ccccc2[C@H]1c1ccc2[nH]c(=O)sc2c1 [Compound 2012] | > 10 |
| CS(=O)(=O)c1ccc2c(c1)CCN(C(=O)O[C@@H]1CN3CCC1CC3)[C@H]2c1ccc(F)cc1 [Compound 2025] | > 10 |
| CS(=O)(=O)c1ccc2c(c1)CCN(C(=O)O[C@@H]1CN3CCC1CC3)[C@@H]2c1ccc(F)cc1 [Compound 2026] | > 10 |
| COC(=O)c1ccc2c(c1)[C@H](c1ccc(F)cc1)N(C(=O)O[C@@H]1CN3CCC1CC3)CC2 [Compound 2029] | > 10 |
| CS(=O)(=O)c1ccc2c(c1)[C@H](c1ccc(F)cc1)N(C(=O)O[C@@H]1CN3CCC1CC3)CC2 [Compound 2031] | 5.75 |
| CS(=O)(=O)c1ccc2c(c1)[C@@H](c1ccc(F)cc1)N(C(=O)O[C@@H]1CN3CCC1CC3)CC2 [Compound 2032] | > 10 |

Same assay, conditions: Mus musculus, BV-2, PGRN assay, Table C; secreted mouse PGRN in cell culture medium, ELISA

| Structure (SMILES) | EC50 [µM] |
| --- | --- |
| O=C(OC1CC2CCN(C2)C1)N1CCc2ccccc2[C@@H]1c1ccc(F)cc1 (stereo partly drawn) [Compound 2002] | 0.748 |
| CN1CCO[C@H](CC(=O)N2CCc3ccccc3[C@@H]2c2ccc(F)cc2)C1 [Compound 2003] | 1.13 |
| CN1CCO[C@H](COC(=O)N2CCc3ccccc3[C@@H]2c2ccc(F)cc2)C1 [Compound 2004] | 1.05 |
| CN1CCO[C@@H](COC(=O)N2CCc3ccccc3[C@@H]2c2ccc(F)cc2)C1 [Compound 2005] | 0.587 |
| CN1C2CCC1CC(OC(=O)N1CCc3ccccc3[C@@H]1c1ccc(F)cc1)C2 (stereo partly drawn) [Compound 2007] | 1.19 |
| CN1C[C@H]2CC[C@@H](C1)[C@H]2OC(=O)N1CCc2ccccc2[C@@H]1c1ccc(F)cc1 [Compound 2008] | 0.559 |
| O=C(CO[C@@H]1CN2CCC1CC2)N1CCc2ccccc2[C@@H]1c1ccc(F)cc1 [Compound 2009] | 0.811 |
| O=S(=O)(N[C@@H]1CN2CCC1CC2)N1CCc2ccccc2[C@@H]1c1ccc(F)cc1 [Compound 2010] | > 10 |
| CN(CC12CCN(CC1)CC2)C(=O)N1CCc2ccccc2[C@@H]1c1ccc(F)cc1 [Compound 2013] | > 10 |
| N#Cc1ccc2c(c1)CCN(C(=O)N[C@@H]1CN3CCC1CC3)[C@H]2c1ccc(F)cc1 [Compound 2014] | 2.32 |
| N#Cc1ccc2c(c1)CCN(C(=O)N[C@@H]1CN3CCC1CC3)[C@@H]2c1ccc(F)cc1 [Compound 2015] | 1.5 |
| CN1C2CCC1[C@@H](OC(=O)N1CCc3ccccc3[C@@H]1c1ccc(F)cc1)CC2 (stereo partly drawn) [Compound 2016] | 0.581 |
| CN1C2CCC1[C@H](OC(=O)N1CCc3ccccc3[C@H]1c1ccc(F)cc1)CC2 (stereo partly drawn) [Compound 2017] | 0.722 |
| CN1CCC2(CC1)CC(OC(=O)N1CCc3ccccc3[C@@H]1c1ccc(F)cc1)C2 [Compound 2018] | 1.89 |
| CN1CC2(CC(OC(=O)N3CCc4ccccc4[C@@H]3c3ccc(F)cc3)C2)C1 [Compound 2019] | 0.965 |
| CN1CCC(OC(=O)N2CCc3ccccc3[C@@H]2c2ccc(F)cc2)CC1 [Compound 2020] | 0.23 |
| CN1CC2(CC[C@@H]2OC(=O)N2CCc3ccccc3[C@@H]2c2ccc(F)cc2)C1 [Compound 2021] | 0.735 |
| CN1CC2(CC[C@H]2OC(=O)N2CCc3ccccc3[C@@H]2c2ccc(F)cc2)C1 [Compound 2022] | 0.96 |
| CN1C[C@@H]2[C@@H](COC(=O)N3CCc4ccccc4[C@@H]3c3ccc(F)cc3)[C@@H]2C1 [Compound 2023] | 1.18 |

| Structure (SMILES) | EC50 [µM] |
| --- | --- |
| CO[C@@H](CC12CCN(CC1)CC2)C(=O)N1CCc2ccccc2[C@@H]1c1ccc(F)cc1 [Compound 2027] | > 10 |
| CO[C@H](CC12CCN(CC1)CC2)C(=O)N1CCc2ccccc2[C@@H]1c1ccc(F)cc1 [Compound 2028] | > 10 |
| O=C(CCC12CCN(CC1)CC2)N1CCc2ccccc2[C@@H]1c1ccc(F)cc1 [Compound 2037] | > 8.09 |
| N#Cc1ccc2c(c1)[C@H](c1ccc(F)cc1)N(C(=O)N[C@@H]1CN3CCC1CC3)CC2 [Compound 2038, 7-cyano-1-(4-fluorophenyl)-N—((S)-quinuclidin-3-yl)-3,4-dihydroisoquinoline-2(1H)-carboxamide] | > 10 |
| N#Cc1ccc2c(c1)[C@@H](c1ccc(F)cc1)N(C(=O)N[C@@H]1CN3CCC1CC3)CC2 [Compound 2039, 7-cyano-1-(4-fluorophenyl)-N—((S)-quinuclidin-3-yl)-3,4-dihydroisoquinoline-2(1H)-carboxamide] | > 10 |
| CS(=O)(=O)c1ccc2c(c1)CCN(C(=O)N[C@@H]1CN3CCC1CC3)[C@H]2c1ccc(F)cc1 [Compound 2040, 1-(4-fluorophenyl)-6-(methylsulfonyl)-N—((S)-quinuclidin-3-yl)-3,4-dihydroisoquinoline-2(1H)-carboxamide] | > 10 |
| CS(=O)(=O)c1ccc2c(c1)CCN(C(=O)N[C@@H]1CN3CCC1CC3)[C@@H]2c1ccc(F)cc1 [Compound 2041, 1-(4-fluorophenyl)-6-(methylsulfonyl)-N—((S)-quinuclidin-3-yl)-3,4-dihydroisoquinoline-2(1H)-carboxamide] | > 10 |
| CN1CCS(=O)(=O)[C@H](CC(=O)N2CCc3ccccc3[C@@H]2c2ccc(F)cc2)C1 [Compound 2042] | 3.2 |
| COC(=O)c1ccc2c(c1)[C@H](c1ccc(F)cc1)N(C(=O)OCC13CCN(CC1)CC3)CC2 [Compound 2044] | 4.71 |
| COC(=O)c1ccc2c(c1)[C@@H](c1ccc(F)cc1)N(C(=O)OCC13CCN(CC1)CC3)CC2 [Compound 2045] | > 10 |
| COCCOCCOc1ccc(COc2ccc([C@H]3c4ccccc4CCN3C(=O)OCC34CCN(CC3)CC4)cc2)cc1 [Compound 2046] | 1.72 |
| COCCOCCOc1ccc(COc2ccc([C@@H]3c4ccccc4CCN3C(=O)OCC34CCN(CC3)CC4)cc2)cc1 [Compound 2047] | > 2.69 |
| O=C(N[C@@H]1CCN2CCC[C@H]12)N1CCc2ccccc2[C@@H]1c1ccc(F)cc1 [Compound 2048] | 1.9 |
| O=C(N[C@H]1CCN2CCC[C@H]12)N1CCc2ccccc2[C@@H]1c1ccc(F)cc1 [Compound 2050] | 3.9 |
| O=C(N[C@H]1CCN2CCC[C@@H]12)N1CCc2ccccc2[C@@H]1c1ccc(F)cc1 [Compound 2051] | > 10 |
| C#CCOc1ccc2c(c1)[C@H](c1ccc(F)cc1)N(C(=O)OCC13CCN(CC1)CC3)CC2 [Compound 2052, (S)-quinuclidin-4-ylmethyl 1-(4-fluorophenyl)-7-(prop-2-ynyloxy)-3,4-dihydroisoquinoline-2(1H)-carboxylate] | 6.82 |
| CS(=O)(=O)c1ccc2c(c1)[C@H](c1ccc(F)cc1)N(C(=O)N[C@@H]1CN3CCC1CC3)CC2 [Compound 2056] | > 10 |
| CS(=O)(=O)c1ccc2c(c1)[C@@H](c1ccc(F)cc1)N(C(=O)N[C@@H]1CN3CCC1CC3)CC2 [Compound 2057] | > 10 |
| O=S(=O)(CCC12CCN(CC1)CC2)N1CCc2ccccc2[C@@H]1c1ccc(F)cc1 [Compound 2058, (S)-4-(2-(1-(4-fluorophenyl)-3,4-dihydroisoquinolin-2(1H)-ylsulfonyl)ethyl)quinuclidine] | 3 |

Same assay, conditions: Mus musculus, BV-2, PGRN assay, Table D; secreted mouse PGRN in cell culture medium, ELISA

| EC50 [µM] | Structure (SMILES) |
| --- | --- |
| 3.26 | O=C(N[C@@H]1CNCC1(F)F)N1CCc2ccccc2[C@@H]1c1ccc(F)cc1 (stereo in doubt) [Compound 2244, (1 S)—N-(4,4-difluoropyrrolidin-3-yl)-1-(4-fluorophenyl)-3,4-dihydroisoquinoline-2(1H)-carboxamide] |
| 0.6 | O=C(O[C@H]1CNCC12CC2)N1CCc2ccccc2[C@@H]1c1ccc(F)cc1 (stereo in doubt) [Compound 2309, 5-azaspiro[2.4]heptan-7-yl-(1 S)-1-(4-fluorophenyl)-3,4-dihydroisoquinoline-2(1H)-carboxylate] |
| 0.501 | O=C(O[C@@H]1CNCC12CC2)N1CCc2ccccc2[C@@H]1c1ccc(F)cc1 (stereo in doubt) [Compound 2310, 5-azaspiro[2.4]heptan-7-yl-(1 S)-1-(4-fluorophenyl)-3,4-dihydroisoquinoline-2(1H)-carboxylate] |
| 1.32 | CN(C)C1CCN(C(=O)N2CCc3ccccc3[C@@H]2c2ccc(F)cc2)C1 (stereo in doubt) [Compound 2311, ((R)-3-(dimethylamino)pyrrolidin-1-yl)((S)-1-(4-fluorophenyl)-3,4-dihydroisoquinolin-2(1H)-yl)methanone] |
